Entries after “also recorded” stand apart in the source; their conditions may differ.
Assays:
[1] = test system: ventricular reentry arrhythmias; assay: Ventricular reentry arrhythmias in dogs after coronary artery occlusion; format: in vivo, dog; settings: i.v. bolus and infusion after CAO; from the lowest dose
Description: Three dogs were studied in the anesthetized, open chest state to facilitate electrode placement for mapping. α-chloralose was given as a bolus (200 mg/kg) and then a constant infusion at 8 mg/kg/hr (dissolved in polyethylene glycol, MW=200). The femoral vein and artery was cannulated for administration of fluid and drugs and for measurement of ascending aortic pressure, respectively.
The sinus node was clamped and the atrial appendage was paced with a programmable stimulator with constant current outputs at two times diastolic threshold. Pacing rate was ≧200 b/min to control heart rates. […] Endocardial Effective Refractory Period (ERP) was measured by the standard extrastimulus technique. Late ventricular diastolic threshold was measured during each intervention; the pacing current was four times threshold.
Test sites were chosen along the shaft of 16 pole needles (J. Kassell, Fayetteville, N.C.); each pole completely surrounds the needle shaft to prevent directionality of needle orientation from recording of adjacent Purkinje strands. Six bipolar electrograms (1 mm spacing) were recorded sequentially down the shaft of the needle by amplifying up to 1000 times, filtering from 3-1300 Hz and recording via oscilloscope during atrial pacing. Four intramural electrograms are recorded on each multipolar needle. […]

[2] = test system: isolated perfused rabbit hearts; assay: Isolated perfused rabbit hearts (Langendorff), APD90 dispersion
human osteoblastic cells = assay: Intercellular calcium wave propagation in human osteoblasts; format: cell-based; settings: 10^−8 M; medium without glucose (1.4 cells before); after ATP desensitization
Description: Human osteblast cells (hOB): Cells were isolated from human bone marrow obtained by puncture of the posterior iliac spine of healthy volunteers (aged 20-36): 10-15 ml marrow material was collected in 15 ml PBS+Ca,Mg (Life Technologies, Cat.No. 14040) with 100 U/ml Heparin (Sigma, Cat.No. H-3149). The mononuclear fraction of the marrow was isolated on a Lymphoprep gradient (Nycomed Pharma, Cat.No. 1001967), by centrifugation at 2200 rpm for 30 min. After harvesting, the mononuclear fraction was washed once with culture medium and centrifuged at 1800 rpm for 10 min. Subsequently cells were counted and plated in culture medium at 8×10^6 cells/100 mm dish. hOB medium (all reagents obtained from Life Technologies): MEM w/o Phenol Red w/Glutamax (Cat.No. 041-93013) supplemented with 10% heat inactivated fetal calf serum (Cat.No. 10106) and 0.1% Penicillin/Streptomycin (Cat.No. 15140). Medium was changed the following day and the cells were cultured at 37° C. in 5%CO2 with medium change every 7 days. After 3-4 weeks of culture the cells had reached 70% confluence. The medium was then supplemented with 100 nM Dexamethasone (Sigma, Cat.No. D-4902) for 7 days. […]
Metabolic stress induced by hypoglycemia is also known to decrease gap junctional communication. […] After ATP desensitization as described above, one single cell was stimulated mechanically, and the number of cells in the wave was recorded. […]

Ac-D-Tyr-D-Pro-D-4Hyp-Gly-D-Ala-Gly-NH2 [Compound 2]
inducibility of reentry ventricular tachycardia (VT) [1]: no longer inducible; also recorded: completely blocked; also recorded: No VT was inducible | increase in APD90 dispersion during hypokalemic, acute myocardial ischemia [2]: prevented | average number of cells in the calcium wave (human osteoblastic cells): 2.9 cells
